According to patent publication US7935687B2, “Methods for treating spinal muscular atrophy using tetracycline compounds” (Paratek Pharmaceuticals, Inc., priority 2007, dated 2011):
Where two headings read alike, the source gives them in different places.

Experiments:
[1] = tested on: S. aureus (SA RN450); assay: Antibacterial MIC, gram positive; assay type: cell-based; details: for MIC: Staphylococcus aureus
[2] = tested on: E. coli (EC D1-209); assay: Antibacterial MIC, gram negative; assay type: cell-based; details: for MIC: Escherichia coli
[3] = CLSI methodology, 35° C., 18-24 hours

CN(CCOC(C)(C)C)Cc1cccc(-c2ccc(O)c3c2CC2CC4C(N(C)C)C(O)=C(C(N)=O)C(=O)C4(O)C(O)=C2C3=O)c1 (centres unmarked) [BM]
MIC Gram Positive (SA RN450) [1, 3]: *** (Good antibacterial activity (e.g., less than about 4 μg/mL)) | MIC Gram Negative (EC D1-209) [2, 3]: ** (modest antibacterial activity (between about 4 and 8 μg/mL))

CN(C)C1C(O)=C(C(N)=O)C(=O)C2(O)C(O)=C3C(=O)c4c(O)ccc(C(=O)CNCC(C)(C)C)c4CC3CC12 (centres unmarked) [BP]
MIC Gram Positive (SA RN450) [1, 3]: *** (Good antibacterial activity (e.g., less than about 4 μg/mL)) | MIC Gram Negative (EC D1-209) [2, 3]: * (weak antibacterial activity (greater than about 8 μg/mL))

CCOC(=O)N1CCN(CC(=O)c2ccc(O)c3c2CC2CC4C(N(C)C)C(O)=C(C(N)=O)C(=O)C4(O)C(O)=C2C3=O)CC1 (centres unmarked) [BR]
MIC Gram Positive (SA RN450) [1, 3]: *** (Good antibacterial activity (e.g., less than about 4 μg/mL)) | MIC Gram Negative (EC D1-209) [2, 3]: * (weak antibacterial activity (greater than about 8 μg/mL))

CN(C)C1C(O)=C(C(N)=O)C(=O)C2(O)C(O)=C3C(=O)c4c(O)ccc(C(=O)CNCC(F)(F)F)c4CC3CC12 (centres unmarked) [BT]
MIC Gram Positive (SA RN450) [1, 3]: *** (Good antibacterial activity (e.g., less than about 4 μg/mL)) | MIC Gram Negative (EC D1-209) [2, 3]: * (weak antibacterial activity (greater than about 8 μg/mL))

CN(C)C1C(O)=C(C(N)=O)C(=O)C2(O)C(O)=C3C(=O)c4c(O)ccc(C(=O)CN5CCN(C6CCCCC6)CC5)c4CC3CC12 (centres unmarked) [BU]
MIC Gram Positive (SA RN450) [1, 3]: *** (Good antibacterial activity (e.g., less than about 4 μg/mL)) | MIC Gram Negative (EC D1-209) [2, 3]: *** (Good antibacterial activity (e.g., less than about 4 μg/mL))

C=CCNCC(=O)c1ccc(O)c2c1CC1CC3C(N(C)C)C(O)=C(C(N)=O)C(=O)C3(O)C(O)=C1C2=O (centres unmarked) [BV]
MIC Gram Positive (SA RN450) [1, 3]: *** (Good antibacterial activity (e.g., less than about 4 μg/mL)) | MIC Gram Negative (EC D1-209) [2, 3]: * (weak antibacterial activity (greater than about 8 μg/mL))

COCC(=O)c1ccc(O)c2c1CC1CC3C(N(C)C)C(O)=C(C(N)=O)C(=O)C3(O)C(O)=C1C2=O (centres unmarked) [BW]
MIC Gram Positive (SA RN450) [1, 3]: *** (Good antibacterial activity (e.g., less than about 4 μg/mL)) | MIC Gram Negative (EC D1-209) [2, 3]: * (weak antibacterial activity (greater than about 8 μg/mL))

CN(C)C1C(O)=C(C(N)=O)C(=O)C2(O)C(O)=C3C(=O)c4c(O)ccc(C(=O)CNCc5ccccn5)c4CC3CC12 (centres unmarked) [BY]
MIC Gram Positive (SA RN450) [1, 3]: *** (Good antibacterial activity (e.g., less than about 4 μg/mL)) | MIC Gram Negative (EC D1-209) [2, 3]: * (weak antibacterial activity (greater than about 8 μg/mL))

CN(C)C1C(O)=C(C(N)=O)C(=O)C2(O)C(O)=C3C(=O)c4c(O)ccc(C(=O)CNCC(N)=O)c4CC3CC12 (centres unmarked) [BZ]
MIC Gram Positive (SA RN450) [1]: ** (key: ***: Good antibacterial activity (e.g., less than about 4 μg/mL); **: modest antibacterial activity (between about 4 and 8 μg/mL); *: weak antibacterial activity (greater than about 8 μg/mL)) | MIC Gram Negative (EC D1-209) [2]: * (key: ***: Good antibacterial activity (e.g., less than about 4 μg/mL); **: modest antibacterial activity (between about 4 and 8 μg/mL); *: weak antibacterial activity (greater than about 8 μg/mL))

COC(C)CNCC(=O)c1ccc(O)c2c1CC1CC3C(N(C)C)C(O)=C(C(N)=O)C(=O)C3(O)C(O)=C1C2=O (centres unmarked) [CA]
MIC Gram Positive (SA RN450) [1, 3]: *** (Good antibacterial activity (e.g., less than about 4 μg/mL)) | MIC Gram Negative (EC D1-209) [2, 3]: * (weak antibacterial activity (greater than about 8 μg/mL))

CN(C)c1cc(-c2cccc(C(N)=O)c2)c(O)c2c1CC1CC3C(N(C)C)C(O)=C(C(N)=O)C(=O)C3(O)C(O)=C1C2=O (centres unmarked) [CD]
MIC Gram Positive (SA RN450) [1, 3]: ** (modest antibacterial activity (between about 4 and 8 μg/mL)) | MIC Gram Negative (EC D1-209) [2, 3]: * (weak antibacterial activity (greater than about 8 μg/mL))

CN(C)C1C(O)=C(C(N)=O)C(=O)C2(O)C(O)=C3C(=O)c4c(O)ccc(C(=O)Cn5ccnc5)c4CC3CC12 (centres unmarked) [CF]
MIC Gram Positive (SA RN450) [1, 3]: ** (modest antibacterial activity (between about 4 and 8 μg/mL)) | MIC Gram Negative (EC D1-209) [2, 3]: * (weak antibacterial activity (greater than about 8 μg/mL))

CC1=NCCN1CC(=O)c1ccc(O)c2c1CC1CC3C(N(C)C)C(O)=C(C(N)=O)C(=O)C3(O)C(O)=C1C2=O (centres unmarked) [CH]
MIC Gram Positive (SA RN450) [1, 3]: ** (modest antibacterial activity (between about 4 and 8 μg/mL)) | MIC Gram Negative (EC D1-209) [2, 3]: * (weak antibacterial activity (greater than about 8 μg/mL))

CN(C)CC(=O)N1CC=C(c2ccc(O)c3c2CC2CC4C(N(C)C)C(O)=C(C(N)=O)C(=O)C4(O)C(O)=C2C3=O)CC1 (centres unmarked) [Compound AL]
MIC Gram Positive (SA RN450) [1, 3]: *** (Good antibacterial activity (e.g., less than about 4 μg/mL)) | MIC Gram Negative (EC D1-209) [2, 3]: * (weak antibacterial activity (greater than about 8 μg/mL))

CN(C)CCc1ccc(O)c2c1CC1CC3C(N(C)C)C(O)=C(C(N)=O)C(=O)C3(O)C(O)=C1C2=O (centres unmarked) [Compound BD]
MIC Gram Positive (SA RN450) [1, 3]: *** (Good antibacterial activity (e.g., less than about 4 μg/mL)) | MIC Gram Negative (EC D1-209) [2, 3]: * (weak antibacterial activity (greater than about 8 μg/mL))

CN(C)CCC(=NOC(C)(C)C)c1ccc(O)c2c1CC1CC3C(N(C)C)C(O)=C(C(N)=O)C(=O)C3(O)C(O)=C1C2=O (centres unmarked) [Compound CJ]
MIC Gram Positive (SA RN450) [1, 3]: *** (Good antibacterial activity (e.g., less than about 4 μg/mL)) | MIC Gram Negative (EC D1-209) [2, 3]: * (weak antibacterial activity (greater than about 8 μg/mL))

CN1CCN(C(=O)c2cccc(-c3ccc(O)c4c3CC3CC5C(N(C)C)C(O)=C(C(N)=O)C(=O)C5(O)C(O)=C3C4=O)c2)CC1 (centres unmarked) [Compound C]
MIC Gram Positive (SA RN450) [1, 3]: *** (Good antibacterial activity (e.g., less than about 4 μg/mL)) | MIC Gram Negative (EC D1-209) [2, 3]: * (weak antibacterial activity (greater than about 8 μg/mL))

CN(C)CCNC(=O)c1cccc(-c2cc(N(C)C)c3c(c2O)C(=O)C2=C(O)[C@]4(O)C(=O)C(C(N)=O)=C(O)[C@@H](N(C)C)[C@@H]4C[C@@H]2C3)c1 [Compound V, (4S,4aS,5aR,12aS)-4,7-Bis-dimethylamino-9-[3-(2-dimethylamino-ethylcarbamoyl)-phenyl]-3,10,12,12a-tetrahydroxy-1,11-dioxo-1,4,4a,5,5a,6,11,12a-octahydro-naphthacene-2-carboxylic Acid Amide]
MIC [1, 3]: > 8 µg/mL | MIC [2, 3]: > 8 µg/mL

CN(C)CCCNC(=O)c1cccc(-c2cc(N(C)C)c3c(c2O)C(=O)C2=C(O)[C@]4(O)C(=O)C(C(N)=O)=C(O)[C@@H](N(C)C)[C@@H]4C[C@@H]2C3)c1 [Compound X]
MIC Gram Positive (SA RN450) [1, 3]: * (weak antibacterial activity (greater than about 8 μg/mL)) | MIC Gram Negative (EC D1-209) [2, 3]: * (weak antibacterial activity (greater than about 8 μg/mL))

CN(C)CCNC(=O)c1cccc(-c2ccc(O)c3c2C[C@H]2C[C@H]4CC(O)=C(C(N)=O)C(=O)[C@@]4(O)C(O)=C2C3=O)c1 [Compound Z, (4aS,5aR,12aS)-7-[3-(2-Dimethylamino-ethylcarbamoyl)-phenyl]-3,10,12,12a-tetrahydroxy-1,11-dioxo-1,4,4a,5,5a,6,11,12a-octahydro-naphthacene-2-carboxylic Acid Amide]
MIC [1, 3]: > 8 µg/mL | MIC [2, 3]: > 8 µg/mL

CN1CCN(C(=O)c2cccc(-c3ccc(O)c4c3CC3CC5C(N(C)C)C(O)=C(C(N)=O)C(=O)C5(O)C(O)=C3C4=O)c2)CC1 (centres unmarked) [D]
MIC Gram Positive (SA RN450) [1, 3]: * (weak antibacterial activity (greater than about 8 μg/mL)) | MIC Gram Negative (EC D1-209) [2, 3]: * (weak antibacterial activity (greater than about 8 μg/mL))

CCCCNC(=O)c1cccc(-c2ccc(O)c3c2CC2CC4C(N(C)C)C(O)=C(C(N)=O)C(=O)C4(O)C(O)=C2C3=O)c1 (centres unmarked) [F]
MIC Gram Positive (SA RN450) [1, 3]: *** (Good antibacterial activity (e.g., less than about 4 μg/mL)) | MIC Gram Negative (EC D1-209) [2, 3]: * (weak antibacterial activity (greater than about 8 μg/mL))
